Laboratory results published in ChEMBL document CHEMBL1201862, “PubChem BioAssay data set” (2004).
The source made the active and inactive calls.

Key:
[1] = target: T1, Protein RecA (Mycobacterium tuberculosis, UniProt P9WHJ3); experiment: Fluorescence Cell-Free Homogeneous Dose Retest to Identify Inhibitors of RecA-Intein Splicing Activity. [Related pubchem assays (depositor defined):AID2097, AID2223, AID489010, AID492950]; format: functional
T1 sequence (P9WHJ3 whole entry): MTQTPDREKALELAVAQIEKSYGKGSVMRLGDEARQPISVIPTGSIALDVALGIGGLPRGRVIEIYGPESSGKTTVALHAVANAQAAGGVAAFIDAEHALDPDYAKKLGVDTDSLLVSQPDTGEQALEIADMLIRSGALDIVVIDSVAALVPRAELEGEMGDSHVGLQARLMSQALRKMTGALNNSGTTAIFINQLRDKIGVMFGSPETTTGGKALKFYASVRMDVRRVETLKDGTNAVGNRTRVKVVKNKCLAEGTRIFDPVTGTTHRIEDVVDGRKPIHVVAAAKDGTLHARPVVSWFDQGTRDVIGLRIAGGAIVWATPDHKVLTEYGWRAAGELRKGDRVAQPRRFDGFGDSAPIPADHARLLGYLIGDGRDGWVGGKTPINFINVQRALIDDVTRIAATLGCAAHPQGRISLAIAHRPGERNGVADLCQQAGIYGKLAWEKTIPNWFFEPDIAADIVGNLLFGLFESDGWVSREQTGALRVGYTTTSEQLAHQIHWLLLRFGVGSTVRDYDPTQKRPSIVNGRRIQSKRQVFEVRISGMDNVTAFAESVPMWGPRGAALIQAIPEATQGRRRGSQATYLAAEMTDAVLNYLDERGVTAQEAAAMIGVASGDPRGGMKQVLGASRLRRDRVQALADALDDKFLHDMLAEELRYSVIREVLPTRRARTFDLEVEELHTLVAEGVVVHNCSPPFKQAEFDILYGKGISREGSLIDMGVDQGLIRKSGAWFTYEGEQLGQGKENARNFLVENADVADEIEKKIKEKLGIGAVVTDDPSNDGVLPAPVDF

[2] = target: T2, Replicative DNA helicase DnaB (Mycobacterium tuberculosis, UniProt P9WMR3); experiment: DnaB intein splicing inhibitors, dose response, biochemical, cell-free fluorescence (AID 449749); format: functional
T2 sequence (P9WMR3 whole entry): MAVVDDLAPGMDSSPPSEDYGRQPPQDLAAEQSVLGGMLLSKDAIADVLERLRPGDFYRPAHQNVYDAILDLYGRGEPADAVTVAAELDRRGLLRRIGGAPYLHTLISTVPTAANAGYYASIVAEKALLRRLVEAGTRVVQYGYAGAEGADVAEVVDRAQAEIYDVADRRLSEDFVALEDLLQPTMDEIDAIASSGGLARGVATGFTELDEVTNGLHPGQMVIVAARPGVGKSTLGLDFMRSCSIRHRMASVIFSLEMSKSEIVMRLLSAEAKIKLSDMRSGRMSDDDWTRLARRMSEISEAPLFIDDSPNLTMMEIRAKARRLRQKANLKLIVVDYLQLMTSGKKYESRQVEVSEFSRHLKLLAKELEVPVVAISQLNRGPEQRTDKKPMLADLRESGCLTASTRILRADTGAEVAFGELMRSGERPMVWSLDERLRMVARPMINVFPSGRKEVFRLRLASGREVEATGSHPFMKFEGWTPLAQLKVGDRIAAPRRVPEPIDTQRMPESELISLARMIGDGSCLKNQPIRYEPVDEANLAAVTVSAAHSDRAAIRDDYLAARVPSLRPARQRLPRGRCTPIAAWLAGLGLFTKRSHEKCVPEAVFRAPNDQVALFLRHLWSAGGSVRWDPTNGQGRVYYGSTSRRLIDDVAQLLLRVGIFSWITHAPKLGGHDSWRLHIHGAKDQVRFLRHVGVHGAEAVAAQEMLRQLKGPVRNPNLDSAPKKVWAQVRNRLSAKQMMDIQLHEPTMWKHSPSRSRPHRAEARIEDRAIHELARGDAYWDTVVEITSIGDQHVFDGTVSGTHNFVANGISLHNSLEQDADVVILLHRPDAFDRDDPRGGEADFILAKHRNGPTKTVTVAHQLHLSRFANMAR

[3] = Trypanosoma cruzi growth suppression in host cells – NIH3T3 host cells, beta-gal luminescence, confirmation (AID 2044); format: functional, cell-based;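 note: intracellular parasites grown in NIH/3T3 mouse fibroblasts as host cells; luminescent beta-galactosidase reporter signal from transgenic T. cruzi replicating inside host cells; inhibitors lower the luminescence signal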
[4] = NIH3T3 cell viability loss – ATP luminescence, mouse fibroblasts, counter-screen, dose response (AID 2010); format: functional, cell-based;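 note: cells exposed to compound for about 90 hours before reading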
[5] = target: Cytochrome P450 2C19 (Homo sapiens, UniProt P33261); experiment: Cytochrome panel assay with activity outcomes. Panel member name: p450-cyp2c19 Compounds with AC50 equal or less than 10 uM are considered active; format: functional
[6] = target: T3, Cytochrome P450 1A2 (Homo sapiens, UniProt P05177);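 note: PubChem cytochrome P450 panel assay, CYP1A2 panel member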
T3 sequence (P05177 whole entry): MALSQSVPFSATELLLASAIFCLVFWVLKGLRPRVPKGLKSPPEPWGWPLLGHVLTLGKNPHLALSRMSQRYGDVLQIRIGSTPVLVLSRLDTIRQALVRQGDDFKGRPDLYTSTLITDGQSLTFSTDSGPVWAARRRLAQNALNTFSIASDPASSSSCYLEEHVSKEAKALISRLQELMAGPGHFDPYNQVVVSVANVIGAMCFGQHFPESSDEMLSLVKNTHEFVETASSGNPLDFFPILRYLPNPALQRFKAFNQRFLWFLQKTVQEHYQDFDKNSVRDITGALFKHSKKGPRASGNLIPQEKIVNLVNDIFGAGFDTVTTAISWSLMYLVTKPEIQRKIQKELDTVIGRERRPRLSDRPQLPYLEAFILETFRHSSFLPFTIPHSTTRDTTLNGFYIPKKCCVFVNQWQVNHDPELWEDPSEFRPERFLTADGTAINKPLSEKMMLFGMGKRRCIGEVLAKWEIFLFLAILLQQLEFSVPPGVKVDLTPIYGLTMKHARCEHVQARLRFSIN

[7] = test system: Streptococcus sp. 'group A'; experiment: Streptococcus pyogenes SK(-)GAS viability under kanamycin – luminescence, BacTiterGlo, confirmation, counter-screen for streptokinase expression inhibitor project, dose response (AID 1900); format: functional, organism-based
[8] = test system: Streptococcus; experiment: GAS UMAA2166 growth inhibition – luminescence, BacTiterGlo, counter-screen for streptokinase expression inhibitor project, dose response (AID 1915); format: functional, organism-based;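 note: potency for reduction of bacterial viability or growth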
[9] = test system: INS1; experiment: INS-1E survival protection against cytokine death – cell-based, luminescence, retest, dose response (AID 449756); format: functional; settings: Rattus norvegicus;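 note: cell death triggered by IL-1 beta plus TNF-alpha plus IFN-gamma mixture; protective hits raise ATP signal compared with cytokine alone wells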

Cytochrome P450 2C19, sequence (P33261 whole entry): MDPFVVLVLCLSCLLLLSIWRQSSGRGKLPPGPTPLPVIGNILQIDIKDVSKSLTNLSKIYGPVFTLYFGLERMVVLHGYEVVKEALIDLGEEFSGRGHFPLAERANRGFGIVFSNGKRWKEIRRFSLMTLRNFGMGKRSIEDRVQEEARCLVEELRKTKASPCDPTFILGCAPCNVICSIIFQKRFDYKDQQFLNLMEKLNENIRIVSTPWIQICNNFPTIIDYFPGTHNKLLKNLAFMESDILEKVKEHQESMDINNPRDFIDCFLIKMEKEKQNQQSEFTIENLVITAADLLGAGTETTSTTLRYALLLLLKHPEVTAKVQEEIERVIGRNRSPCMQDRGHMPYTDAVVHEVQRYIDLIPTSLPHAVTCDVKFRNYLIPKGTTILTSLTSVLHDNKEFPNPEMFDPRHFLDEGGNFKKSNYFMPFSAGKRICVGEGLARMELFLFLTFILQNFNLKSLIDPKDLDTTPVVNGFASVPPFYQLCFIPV

Q: Which results are given for CC(C)(C)Nc1nc(Cl)nc(N(C#N)CN2C(=O)c3ccccc3S2(=O)=O)n1?
A: EC50 [1]: 18.4 µM (active); AC50 [2]: 15.5 µM (active)

Q: With CN1CCC(N(C)S(=O)(=O)c2ccc(NC(=O)COc3cccc(Cl)c3)cc2)CC1 as the compound, how does the EC50 [3] read?
A: 0.268 µM (active)

Q: And the EC50 [4]?
A: > 30 µM (not active)

Q: For COc1ccc(NC(=O)N2CCCC3(CCNCC3)C2)cc1, which AC50 [5] is on record?
A: inconclusive

Q: Which EC50 [3] does the source give for CCCCCCSc1ccc(-c2nc3ccc(C)cn3c2NCc2ccccc2)cc1OC here?
A: 0.701 µM (active)

Q: And the EC50 [4]?
A: 8.59 µM (active)

Q: Which results are given for O=C(OCC1CC(c2ccccc2)=NO1)c1ccc(Cl)cc1 (centres undefined)?
A: AC50 [6]: 2.82 µM (inconclusive); AC50 ([5]; read-out: AC50): 7.08 µM (inconclusive)

Q: Which EC50 [1] does the source give for O=[N+]([O-])c1c(NCc2ccco2)ccc2nonc12 here?
A: 10.1 µM (active)

Q: And the AC50 [2]?
A: 8.52 µM (active)

Q: Which EC50 [7] does the source give for Cc1cc(C(F)(F)F)c2c(n1)sc1c(O)cc(O)nc12 here?
A: 27.8 µM (active)

Q: And the EC50 [8]?
A: > 150 µM (not active)

Q: What does the source list for COC(=O)[C@@]1(Cc2ccccc2)[C@@H]2C(=CC(=O)[C@H]2CC(=O)C(=O)N(C)C)CN1C(=O)c1ccccc1?
A: EC50 [1]: 5.12 µM (active); AC50 [2]: < 0.018 µM (active)

Q: For CC(C)=NO[C@@H](C)c1cn([C@@H]2COC[C@@H]2O)nn1, which AC50 [5] is on record?
A: inconclusive

Q: For COCCn1c(C(=O)N2CCCC2)cc2c1C[C@H]1CN(C(=O)c3ccccc3)[C@@](Cc3ccc(F)cc3)(C(=O)OC)[C@@H]21, which AC50 [6] is on record?
A: 31.6 µM (inconclusive)

Q: And the AC50 ([5]; read-out: AC50)?
A: 25.1 µM (inconclusive)

Q: Which AC50 [6] does the source give for O=[N+]([O-])c1ccc2ncccc2c1CCc1c([N+](=O)[O-])ccc2ncccc12 here?
A: 3.16 µM (inconclusive)

Q: Which results are given for N=C(N)SCCCN?
A: AC50 [6]: 6.31 µM (inconclusive); AC50 [5]: inconclusive

Q: With Cc1ccc(C2C(C#N)=C(N)Oc3n[nH]c(-c4cccs4)c32)cc1 (centres undefined) as the compound, how does the EC50 [1] read?
A: 1.12 µM (active)

Q: And the AC50 [2]?
A: 4.21 µM (active)

Q: For CC1(C)CCC(C)(C)c2c1ccc(O)c2Cc1c(O)ccc2c1C(C)(C)CCC2(C)C, which AC50 [6] is on record?
A: 5.01 µM (inconclusive)

Q: For O=[N+]([O-])c1ccc2c(OCc3nnc(-c4ccccc4Br)o3)ncnc2c1, which EC50 [3] is on record?
A: 0.213 µM (active)

Q: And the EC50 [4]?
A: 10.4 µM (active)

Q: For Cc1ccc(C(=O)n2cnc3ccccc32)cc1C, which EC50 [1] is on record?
A: 124 µM (active)

Q: What about the AC50 [2] of the same compound?
A: 37.7 µM (active)

Q: Which results are given for CC(C)CCN1CCN(C2CCN(c3ccc4c(c3)OCO4)CC2)CC1CCO (centres undefined)?
A: EC50 [3]: 1.56 µM (active); EC50 [4]: > 60 µM (not active)

Q: For O=C(c1ccc([N+](=O)[O-])s1)N1CCc2ccccc2C1, which EC50 [3] is on record?
A: 0.476 µM (active)

Q: And the EC50 [4]?
A: > 60 µM (not active)

Q: Which EC50 [3] does the source give for CC(C)CN1CCCC(N2CCN(c3cccc(Cl)c3)CC2)C1 (centres undefined) here?
A: 3.19 µM (active)

Q: And the EC50 [4]?
A: > 60 µM (not active)

Q: With CS(=O)(=O)Nc1cccc(-c2ccc3ncnc(NC4CCNCC4)c3c2)c1 as the compound, how does the AC50 [6] read?
A: 31.6 µM (inconclusive)

Q: For C=CCN(CC=C)Cc1c[nH]c2ccccc12, which AC50 [9] is on record?
A: > 260 µM (inactive)

Q: For CCCC(=O)NNC(=O)Nc1ccccc1, which AC50 ([5]; read-out: AC50) is on record?
A: 28.2 µM (inconclusive)

Q: What does the source list for CCN(CC)CCNc1c2c(c(C#N)c3nc4ccccc4n13)CCCC2?
A: EC50 [3]: 0.226 µM (active); EC50 [4]: > 60 µM (not active)
